Measured values as given in patent publication US8350077B2 (VERTEX Closed Joint Stock Company, priority 2008, dated 2013).

Assays:
in vitro [1] = assay: in vitro
Experimental: Study of the Creatine derivatives stability in aqueous solution, as well as in human and rat blood plasma was carried out by the method of Reversed Phase HPLC using a chromatography system, known as Beckman System Gold™ (USA) in the following configuration: Programmable Solvent Module 126, Manual Injector Rheodyne 7725i, Programmable Detector Module 166, featured with the Beckman System Gold Chromatography Software™. The analysis was carried out on the column Luna 5μ C18(2) 100 Å 150×4.6 mm (Phenomenex, USA) with the precolumn Guard Cartridge C18 at the flow rate 1 ml/min in the linear gradient of acetonitrile: for analogue from the Example 1 from 5 to 25% of acetonitrile in 20 min (A: 0.1% of […]—H2O, B: 0.1% of H3PO4-acetonitrile), in case of substance from the Examples 2÷8: from 3 to 23% of acetonitrile in 20 minutes. The detection was carried out on the wave length 220 nm. The samples dosing on the column was carried out by the loop 20 μl.
(§1) For the study of Creatine amides stability, 1 ml of water or blood plasma was added to 200 μl of aqueous solution of starting amide with a concentration of 2÷3 mg/ml then shaken; a probe volume of 200 μl was taken up immediately and analysis of an initial concentration of the Creatine amide was carried out. Further, the solution was placed into a vibro-thermostat at a temperature of 37° C., then aliquote 200 μl was taken up in 0.5, 1, and 3 hours of thermostatics. 20 μl 10% solution of trichloroacetic acid was added to the taken probe, and kept for 15 min at temperature (−)24° C., then centrifuged at 6000×g for 5 minutes for sedimentation of plasma proteins, supernatant was taken up and its analysis was carried out.
(§2) For evaluation of samples' stability, peak areas of a corresponding compound at the beginning of experiment and at selected time intervals were compared (Tables 1, 2).

in vitro [2] = assay: in vitro; remark: listed apart in the source
Experimental: The detection was carried out on the wave length 220 nm. The samples dosing on the column was carried out by the loop 20 μl.
as §1, §2

[3] = dosages up to 30 g for a few days, per os; cited from earlier work
[4] = peak area relative to start, 37° C.

| SMILES | Stability in a rat blood plasma, 0 h (in vitro [1]; rat, plasma) | Stability in a rat blood plasma, 0.5 h (in vitro [1]; rat, plasma) | Stability in a rat blood plasma, 1 h (in vitro [1]; rat, plasma) | Stability in a rat blood plasma, 3 h (in vitro [1]; rat, plasma) | Stability in human blood plasma, 0 h (in vitro [2]; human, plasma) | Stability in human blood plasma, 0.5 h (in vitro [2]; human, plasma) | Stability in human blood plasma, 1 h (in vitro [2]; human, plasma) | Stability in human blood plasma, 3 h (in vitro [2]; human, plasma) | Stability in human blood plasma, 0 h (in vitro [2]; [4]) | also measured |
| --- | --- | --- | --- | --- | --- | --- | --- | --- | --- | --- |
| CN(CC(=O)N[C@@H](Cc1ccccc1)C(N)=O)C(=N)N.O [Example 2, Creatinyl-L-Phenylalanine Amide Hydrate] | 100% | 100% | 97% | 98% | 100% | 99% | 99% | 100% | – | – |
| CN(CC(=O)OCc1ccccc1)C(=N)N [Creatine benzyl ester, reference compound] | – | – | – | – | – | – | – | – | 100% | Decrease of concentration in human blood plasma (in vitro [2]; during 0.75 hours): 53%; remaining at 0.75 h (in vitro [2]; human, blood plasma): 53%; remaining at 3 h (in vitro [2]; human, blood plasma): 46% |
| CN(CC(=O)NCC(=O)OCc1ccccc1)C(=N)N.Cl [Example 4, Creatinyl-Glycine Benzyl Ester Hydrochloride] | 100% | 99% | 99% | 96% | 100% | 98% | 100% | 99% | – | – |
| CCOC(=O)CNC(=O)[C@H](CCCNC(=N)N)NC(=O)[C@H](Cc1ccccc1)NC(=O)CN(C)C(=N)N [Example 7, Creatinyl-Phenylalanyl-Arginyl-Glycine Ethyl Ester Acetate] | 100% | – | – | – | 100% | – | – | – | – | remaining at 0.5 h (in vitro [1]; rat, plasma): 93%; remaining at 1 h (in vitro [1]; rat, plasma): 92%; remaining at 3 h (in vitro [1]; rat, plasma): 85%; remaining at 0.5 h (in vitro [2]; human, plasma): 94%; remaining at 1 h (in vitro [2]; human, plasma): 90%; remaining at 3 h (in vitro [2]; human, plasma): 85% |
| CN(CC(=O)N[C@@H](Cc1ccccc1)C(=O)O)C(=N)N.Cl [Example 8, Creatinyl-Phenylalanine hydrochloride] | – | – | – | – | – | – | – | – | 100% | Stability in a rat blood plasma, 0 h (in vitro [1]; [4]): 100%; Stability in a rat blood plasma, 0.5 h (in vitro [1]; [4]): 98%; Stability in a rat blood plasma, 1 h (in vitro [1]; [4]): 98%; Stability in a rat blood plasma, 3 h (in vitro [1]; [4]): 95%; Stability in human blood plasma, 0.5 h (in vitro [2]; [4]): 99%; Stability in human blood plasma, 1 h (in vitro [2]; [4]): 98%; Stability in human blood plasma, 3 h (in vitro [2]; [4]): 97% |
| CN(CC(=O)O)C(=N)N.O [Creatine monohydrate] | – | – | – | – | – | – | – | – | – | Increase of the total Creatine content in a human's skeleton muscles [3]: more than 20% |
| CC(=O)O.CCOC(=O)CCCNC(=O)CN(C)C(=N)N [Example 1, Creatinyl-γ-Aminobutyric Acid Ethyl Ester Acetate] | – | – | – | – | – | – | – | – | 100% | Stability in a rat blood plasma, 0 h (in vitro [1]; [4]): 100%; Stability in a rat blood plasma, 0.5 h (in vitro [1]; [4]): 96%; Stability in a rat blood plasma, 1 h (in vitro [1]; [4]): 98%; Stability in a rat blood plasma, 3 h (in vitro [1]; [4]): 99%; Stability in human blood plasma, 0.5 h (in vitro [2]; [4]): 99%; Stability in human blood plasma, 1 h (in vitro [2]; [4]): 103%; Stability in human blood plasma, 3 h (in vitro [2]; [4]): 104% |
| CC(=O)O.CN(CC(=O)N[C@@H](Cc1ccccc1)C(N)=O)C(=N)N [Example 3, Creatinyl-L-Phenylalanine Amide Acetate] | 100% | 96% | 98% | 99% | 100% | 100% | 100% | 100% | – | – |
